Reference: patent publication US20180200261A1, “METHODS AND MATERIALS FOR TREATING CANCER” (Mayo Foundation for Medical Education and Research, priority 2015, published 2018)

Assays:
[1] = test system: HeLa cells; assay: Immunofluorescence of ionizing radiation induced foci (IRIF); type: cell-based; conditions: 250 nM JQ1, irradiated
Method: FIGS. 1A-B. BET inhibitor affects DNA repair efficiency. (A and B) HeLa cells treated with (JQ1) or without (CK) 250 nM JQ1 were irradiated (2 Gy) and probed with the indicated antibodies at different time points.
To visualize ionizing radiation induced foci (IRIF), cells were cultured on coverslips and treated with 5 Gy ionizing radiation (IR) followed by recovery as indicated. Cells were then washed in PBS, incubated in 3% paraformaldehyde for 15 minutes, and permeabilized in 0.5% Triton solution for 5 minutes at room temperature. Samples were blocked with 5% goat serum and then incubated with primary antibodies for 30 minutes. Samples were washed three times and incubated with secondary antibodies for 30 minutes. Cells were then stained with DAPI to visualize nuclear DNA. The coverslips were mounted onto glass slides with anti-fade solution and visualized using a Nikon eclipse 80i fluorescence microscope. The following antibodies were used in immunofluorescence: rH2Ax (Millipore) and Rad51 (GeneTex).
To check the effect of BET inhibitor in the DNA repair pathway, the foci of rH2Ax and RAD51 were examined (FIG. 1). rH2Ax is the marker of damaged DNA. RAD51 is an enzyme involved in homology recombination. Both proteins can form foci at damaged DNA sites.

[2] = test system: OVCAR10 cells; assay: PARP inhibitor sensitivity assay (colony formation), OVCAR10; type: cell-based; conditions: OVCAR10, JQ1 100 nM, OTX015 100 nM, i-BET-762 250 nM together with AZD2281 0-10 μM, 1 to 2 weeks, clones counted
Method: FIG. 3. […] OVCAR10 cells were plated in 6 well plates at a density of 500 cells/well. JQ1 (100 nM), OTX015 (100 nM), and i-BET-762 (250 nM) were added together with different concentrations of AZD2281 (0, 0.1, 1, or 10 μM). […] The cells were cultured for 1 to 2 weeks until clones were visible for counting.
Cells were plated in 6 well plates with at a density of 500 cells/well. BET inhibitors were added together with different concentrations of AZD2281 (0, 0.1, 1, or 10 μM), and the cells were cultured for 1 to 2 weeks until the colonies were visible for counting.

Structure (SMILES) | rH2Ax foci (rH2Ax positive cells) after IR ([1]; 24 hours after IR) | RAD51 foci after IR ([1]; different time points) | cell sensitivity to PARP inhibitor [2]
Cc1sc2c(c1C)C(c1ccc(Cl)cc1)=N[C@@H](CC(=O)OC(C)(C)C)c1nnc(C)n1-2 [JQ1, (S)-tert-butyl 2-(4-(4-chlorophenyl)-2,3,9-trimethyl-6H-thieno[3,2-f][1,2,4]triazolo[4,3-a][1,4]diazepin-6-yl)acetate] | sustained at high levels | affected RAD51 in a similar manner | affect cell sensitivity to PARP inhibitor
CCNC(=O)C[C@@H]1N=C(c2ccc(Cl)cc2)c2cc(OC)ccc2-n2c(C)nnc21 [i-BET-762, (S)-2-(6-(4-chlorophenyl)-8-methoxy-1-methyl-4H-benzo[f][1,2,4]triazolo[4,3-a][1,4]diazepin-4-yl)-N-ethylacetamide] | – | – | affect cell sensitivity to PARP inhibitor
Cc1sc2c(c1C)C(c1ccc(Cl)cc1)=N[C@@H](CC(=O)Nc1ccc(O)cc1)c1nnc(C)n1-2 [OTX015, (6S)-4-(4-chlorophenyl)-N-(4-hydroxyphenyl)-2,3,9-trimethyl-6H-thieno[3,2-f][1,2,4]triazolo[4,3-a][1,4]diazepine-6-acetamide] | – | – | affect cell sensitivity to PARP inhibitor
